Assay results as given in ChEMBL document CHEMBL5465560, “Selectivity Literature for EUbOPEN Chemogenomic Library” (2024).

Tests used:
[1] = molecular target: T1, Serine/threonine-protein kinase D2 (Homo sapiens) (UniProt Q9BZL6); experiment: Selectivity interaction (KinomeScan (DiscoverX)) EUB0000618a PRKD2; conditions: at 10 µM
T1 sequence (whole entry): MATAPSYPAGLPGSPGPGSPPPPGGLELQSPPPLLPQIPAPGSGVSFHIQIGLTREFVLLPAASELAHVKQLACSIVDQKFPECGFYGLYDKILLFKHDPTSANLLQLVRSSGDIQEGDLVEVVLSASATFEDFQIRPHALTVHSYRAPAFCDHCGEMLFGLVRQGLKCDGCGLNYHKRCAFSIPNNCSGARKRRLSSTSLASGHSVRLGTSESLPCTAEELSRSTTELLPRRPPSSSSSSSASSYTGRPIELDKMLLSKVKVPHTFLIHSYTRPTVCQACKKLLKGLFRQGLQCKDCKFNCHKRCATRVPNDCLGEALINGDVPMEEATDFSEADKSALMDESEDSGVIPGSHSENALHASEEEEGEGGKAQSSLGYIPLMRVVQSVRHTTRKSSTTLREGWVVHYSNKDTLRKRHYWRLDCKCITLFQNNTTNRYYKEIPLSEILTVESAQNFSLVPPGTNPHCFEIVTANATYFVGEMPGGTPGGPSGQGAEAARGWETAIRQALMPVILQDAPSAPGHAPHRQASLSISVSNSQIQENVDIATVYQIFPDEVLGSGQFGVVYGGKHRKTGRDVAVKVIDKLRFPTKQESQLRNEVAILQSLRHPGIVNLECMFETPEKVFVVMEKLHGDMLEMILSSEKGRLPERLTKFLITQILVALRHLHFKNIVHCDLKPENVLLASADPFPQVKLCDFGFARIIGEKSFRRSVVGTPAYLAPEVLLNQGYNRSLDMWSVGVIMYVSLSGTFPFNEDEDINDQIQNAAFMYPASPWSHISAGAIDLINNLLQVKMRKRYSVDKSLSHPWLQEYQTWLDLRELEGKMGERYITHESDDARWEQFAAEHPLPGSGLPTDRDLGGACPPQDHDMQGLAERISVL

[2] = molecular target: RAC-gamma serine/threonine-protein kinase (Homo sapiens, UniProt Q9Y243); experiment: Selectivity interaction (KinomeScan (DiscoverX)) EUB0001619a AKT3; conditions: at 1 µM
[3] = molecular target: Casein kinase II subunit alpha (Homo sapiens, UniProt P68400); conditions: at 10 µM
[4] = molecular target: T2, Interleukin-1 receptor-associated kinase 4 (Homo sapiens) (UniProt Q9NWZ3); experiment: Selectivity interaction (Upstate Kinase Profiler service (Millipore)) EUB0000056c IRAK4; conditions: at 1 µM
T2 sequence (whole entry): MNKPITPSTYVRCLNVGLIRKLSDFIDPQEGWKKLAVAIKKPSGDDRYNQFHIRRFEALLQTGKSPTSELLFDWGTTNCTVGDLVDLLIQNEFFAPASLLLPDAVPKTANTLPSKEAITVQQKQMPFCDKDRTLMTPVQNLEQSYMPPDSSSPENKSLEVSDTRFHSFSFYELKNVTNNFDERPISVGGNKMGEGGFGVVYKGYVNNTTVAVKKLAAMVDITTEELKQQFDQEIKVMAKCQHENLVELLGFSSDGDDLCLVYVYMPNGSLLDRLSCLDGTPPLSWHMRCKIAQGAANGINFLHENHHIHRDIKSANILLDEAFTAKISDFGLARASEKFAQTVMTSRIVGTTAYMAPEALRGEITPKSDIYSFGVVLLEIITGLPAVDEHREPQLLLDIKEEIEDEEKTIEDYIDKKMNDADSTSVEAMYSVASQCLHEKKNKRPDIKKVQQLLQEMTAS

[5] = molecular target: Serine/threonine-protein kinase 16 (Homo sapiens, UniProt O75716); experiment: Selectivity interaction (ActivX KiNativ screen (kinase selectivity in THP-1 cell lysates)) EUB0000639a STK16; type: subcellular; conditions: lysate
[6] = molecular target: T1, Serine/threonine-protein kinase D2 (Homo sapiens); experiment: Selectivity interaction (ActivX KiNativ screen (kinase selectivity in THP-1 cell lysates)) EUB0000639a PRKD2; type: subcellular; conditions: lysate, at 1 µM
[7] = molecular target: T3, Serine/threonine-protein kinase Nek2 (Homo sapiens) (UniProt P51955); experiment: Selectivity interaction (KinomeScan (DiscoverX)) EUB0001049a NEK2; conditions: at 1 µM
T3 sequence (whole entry): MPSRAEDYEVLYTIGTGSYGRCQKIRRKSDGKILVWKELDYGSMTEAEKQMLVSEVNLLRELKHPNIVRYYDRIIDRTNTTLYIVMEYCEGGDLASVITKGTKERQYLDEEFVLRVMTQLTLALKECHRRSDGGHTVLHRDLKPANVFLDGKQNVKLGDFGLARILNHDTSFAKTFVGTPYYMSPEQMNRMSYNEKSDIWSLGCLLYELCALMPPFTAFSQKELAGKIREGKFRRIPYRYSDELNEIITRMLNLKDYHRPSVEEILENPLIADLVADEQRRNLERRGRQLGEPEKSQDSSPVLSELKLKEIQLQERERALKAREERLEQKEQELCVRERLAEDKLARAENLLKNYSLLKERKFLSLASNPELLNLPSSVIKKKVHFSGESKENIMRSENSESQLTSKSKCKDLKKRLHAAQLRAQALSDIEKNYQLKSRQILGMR

[8] = molecular target: Fibroblast growth factor receptor 1 (Homo sapiens, UniProt P11362); experiment: Selectivity interaction (KinomeScan (DiscoverX)) EUB0000695a FGFR1; conditions: at 100 nM
[9] = molecular target: Wee1-like protein kinase 2 (Homo sapiens) (UniProt P0C1S8); experiment: Selectivity interaction (KinomeScan (DiscoverX)) EUB0000695a WEE2; conditions: at 100 nM
Wee1-like protein kinase 2 (Homo sapiens), sequence (P0C1S8 whole entry, looked up): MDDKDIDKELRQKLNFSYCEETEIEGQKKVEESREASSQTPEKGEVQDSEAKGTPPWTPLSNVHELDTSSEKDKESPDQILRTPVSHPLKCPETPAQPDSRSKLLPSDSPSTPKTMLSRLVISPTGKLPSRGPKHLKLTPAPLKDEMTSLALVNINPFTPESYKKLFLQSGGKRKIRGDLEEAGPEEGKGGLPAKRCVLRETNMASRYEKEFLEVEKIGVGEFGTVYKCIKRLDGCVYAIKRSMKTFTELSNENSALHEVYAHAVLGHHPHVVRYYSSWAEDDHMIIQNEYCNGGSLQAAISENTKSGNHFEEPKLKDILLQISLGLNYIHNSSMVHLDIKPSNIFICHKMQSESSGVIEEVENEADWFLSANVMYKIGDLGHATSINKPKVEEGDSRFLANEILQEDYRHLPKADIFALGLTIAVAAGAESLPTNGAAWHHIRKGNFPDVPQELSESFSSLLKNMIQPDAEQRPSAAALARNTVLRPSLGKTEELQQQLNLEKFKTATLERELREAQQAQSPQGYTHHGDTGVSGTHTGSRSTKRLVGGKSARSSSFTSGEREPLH

Serine/threonine-protein kinase 16, sequence (O75716 whole entry): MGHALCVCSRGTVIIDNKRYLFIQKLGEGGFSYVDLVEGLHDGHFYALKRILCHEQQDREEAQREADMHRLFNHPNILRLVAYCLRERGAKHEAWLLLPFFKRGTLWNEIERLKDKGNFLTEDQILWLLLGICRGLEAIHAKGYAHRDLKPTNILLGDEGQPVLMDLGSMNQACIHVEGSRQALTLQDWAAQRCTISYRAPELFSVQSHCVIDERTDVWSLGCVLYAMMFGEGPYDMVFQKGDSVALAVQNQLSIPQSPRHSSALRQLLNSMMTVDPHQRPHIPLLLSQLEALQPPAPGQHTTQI
Casein kinase II subunit alpha, sequence (P68400 whole entry, looked up): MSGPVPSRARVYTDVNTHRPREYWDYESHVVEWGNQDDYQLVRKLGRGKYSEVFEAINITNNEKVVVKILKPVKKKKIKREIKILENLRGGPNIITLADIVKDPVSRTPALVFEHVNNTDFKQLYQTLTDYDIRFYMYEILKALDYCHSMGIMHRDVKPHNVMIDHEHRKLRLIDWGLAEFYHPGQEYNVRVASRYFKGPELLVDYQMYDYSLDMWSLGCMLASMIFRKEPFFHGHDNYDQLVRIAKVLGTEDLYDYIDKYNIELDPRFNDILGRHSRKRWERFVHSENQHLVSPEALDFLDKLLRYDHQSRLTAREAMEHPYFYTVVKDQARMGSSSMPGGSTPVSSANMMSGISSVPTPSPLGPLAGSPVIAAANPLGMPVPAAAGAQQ
RAC-gamma serine/threonine-protein kinase, sequence (Q9Y243 whole entry): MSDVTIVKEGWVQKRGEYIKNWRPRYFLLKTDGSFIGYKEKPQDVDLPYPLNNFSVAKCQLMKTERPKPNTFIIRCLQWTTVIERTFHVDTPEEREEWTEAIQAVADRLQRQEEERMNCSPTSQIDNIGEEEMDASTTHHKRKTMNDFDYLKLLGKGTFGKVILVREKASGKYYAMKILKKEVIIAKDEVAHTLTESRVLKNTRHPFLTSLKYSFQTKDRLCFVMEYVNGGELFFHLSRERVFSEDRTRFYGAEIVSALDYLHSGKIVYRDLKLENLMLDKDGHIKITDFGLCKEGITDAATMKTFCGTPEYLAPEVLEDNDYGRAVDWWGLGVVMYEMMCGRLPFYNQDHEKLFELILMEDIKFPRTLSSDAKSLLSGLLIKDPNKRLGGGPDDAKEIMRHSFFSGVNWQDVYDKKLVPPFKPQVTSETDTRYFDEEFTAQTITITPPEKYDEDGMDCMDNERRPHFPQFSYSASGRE
Fibroblast growth factor receptor 1, sequence (P11362 22-822 limits assumed): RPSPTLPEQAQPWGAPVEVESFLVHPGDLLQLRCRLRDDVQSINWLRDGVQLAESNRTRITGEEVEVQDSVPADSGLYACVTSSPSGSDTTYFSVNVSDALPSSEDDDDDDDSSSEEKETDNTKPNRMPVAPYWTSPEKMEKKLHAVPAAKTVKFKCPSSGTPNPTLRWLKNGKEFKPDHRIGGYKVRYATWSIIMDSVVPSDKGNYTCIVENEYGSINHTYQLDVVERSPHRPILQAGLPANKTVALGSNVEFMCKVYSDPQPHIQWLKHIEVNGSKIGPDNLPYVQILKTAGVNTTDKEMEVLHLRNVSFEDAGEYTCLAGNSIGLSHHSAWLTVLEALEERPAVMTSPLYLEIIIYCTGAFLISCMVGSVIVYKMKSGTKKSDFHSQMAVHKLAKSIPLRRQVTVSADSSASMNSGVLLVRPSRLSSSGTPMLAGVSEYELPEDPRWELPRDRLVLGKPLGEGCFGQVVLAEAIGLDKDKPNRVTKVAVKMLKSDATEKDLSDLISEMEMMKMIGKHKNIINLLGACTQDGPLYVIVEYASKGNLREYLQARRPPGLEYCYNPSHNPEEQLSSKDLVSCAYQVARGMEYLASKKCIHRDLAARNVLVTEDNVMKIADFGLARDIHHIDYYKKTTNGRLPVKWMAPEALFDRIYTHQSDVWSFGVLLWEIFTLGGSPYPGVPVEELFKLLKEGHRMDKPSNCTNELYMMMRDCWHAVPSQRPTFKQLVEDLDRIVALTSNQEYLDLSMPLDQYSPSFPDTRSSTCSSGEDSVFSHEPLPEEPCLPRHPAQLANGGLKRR

O[C@H]1CC[C@H](Nc2ncc3nc(Nc4c(F)cc(F)cc4F)n([C@H]4CCOC4)c3n2)CC1
% of control [1]: 77%

N#Cc1cccc(-c2c[nH]c3ncnc(N4CCOCC4)c23)c1
% of control [2]: 100%

COCC(=O)NC/C=C/c1ccc2ncnc(Nc3ccc(Oc4ccc(C)nc4)c(C)c3)c2c1 [CP-724714]
% of control [3]: 87%

Cc1ccc(-c2ccc3c(ccc4sc5c(c43)NC[C@@H](C)NC5=O)n2)cn1
% of inhibition [4]: 13%

CC[C@@H]1[C@H](F)C(=O)N[C@@H]1COc1nccc2cc(C(N)=O)c(OC)cc12 [ZIMLOVISERTIB]
% of inhibition ([5]; at 0.01 µM): 10.7% | % of inhibition ([5]; at 0.04 µM): 27.8% | % of inhibition ([5]; at 0.2 µM): 22.2% | % of inhibition ([5]; at 1 µM): 67.2% | % of inhibition ([5]; at 5 µM): > 94% | % of inhibition [6]: 8%

COc1cc(Nc2nc(C)cc(-c3cnn4nc(OC)ccc34)n2)cc(C(F)(F)F)c1
% of control [7]: 98%

Cc1cc(F)c(C(=O)Nc2cccc(-c3nncn3C(C)C)n2)cc1-n1cnc(C2CC2)c1
% of control [8]: 100% | % of control [9]: 100%
